Test results from patent publication US8362000B2, “Azetidinyl diamides as monoacylglycerol lipase inhibitors” (Janssen Pharmaceutica NV, priority 2009, dated 2013).

These compounds were tested against T1, MGL (Rattus norvegicus, UniProt Q8R431) (assay: 2-AG accumulation assay in rat brain homogenate). Details: rat brain homogenate; compound 0.01 μM; 2-AG accumulation as percent of vehicle; read-out: Rat Brain 2AG % VehCntrl (%) @ 0.01 μM.
T1 construct: one g rat brain was homogenized using a Polytron homogenizer; from tissue; host or cells: rat brain homogenate
T1 sequence (Q8R431 1-303): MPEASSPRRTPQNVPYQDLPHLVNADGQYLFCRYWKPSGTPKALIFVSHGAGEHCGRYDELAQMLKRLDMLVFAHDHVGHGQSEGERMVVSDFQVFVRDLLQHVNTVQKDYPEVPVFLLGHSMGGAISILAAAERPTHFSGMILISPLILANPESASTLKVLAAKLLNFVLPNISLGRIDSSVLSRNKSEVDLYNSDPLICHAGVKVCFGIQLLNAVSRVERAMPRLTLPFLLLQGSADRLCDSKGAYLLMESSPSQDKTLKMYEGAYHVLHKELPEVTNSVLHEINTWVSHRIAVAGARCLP
Type: biochemical
O=C(c1ccccc1)N1CCN(C2CN(C(=O)c3ccc(-c4cccc(C(F)(F)F)c4)cc3)C2)CC1 [Cpd 186, 1-(Phenylcarbonyl)-4-(1-{[3′-(trifluoromethyl)biphenyl-4-yl]carbonyl}azetidin-3-yl)piperazine] showed a 2-AG accumulation, % of vehicle control at 0.01 µM of 123%.

Same assay, conditions: rat brain homogenate; compound 0.1 μM; 2-AG accumulation as percent of vehicle; read-out: Rat Brain 2AG % VehCntrl (%) @ 0.1 μM
Compound O=C(c1ccccc1)N1CCN(C2CN(C(=O)c3ccc(-c4cccc(C(F)(F)F)c4)cc3)C2)CC1 [Cpd 186, 1-(Phenylcarbonyl)-4-(1-{[3′-(trifluoromethyl)biphenyl-4-yl]carbonyl}azetidin-3-yl)piperazine] has a 2-AG accumulation, % of vehicle control at 0.1 µM of 199%.

Same assay, conditions: rat brain homogenate; compound 1 μM; 2-AG accumulation as percent of vehicle
For Cc1c(C(=O)N2CC(N3CCN(C(=O)c4ccns4)CC3)C2)sc2cc(C(F)(F)F)ccc12 [Cpd 692], the “Rat Brain 2AG % VehCntrl (%) @ 1 μM” value was 284%.

Same assay, conditions: rat brain homogenate; compound 1 μM; 2-AG accumulation as percent of vehicle; read-out: Rat Brain 2AG % VehCntrl (%) @ 1 μM
O=C(c1ccc2c(c1)CCN(S(=O)(=O)C1CCCCC1)C2)N1CC(N2CCN(C(=O)c3nccs3)CC2)C1 [Cpd 906] was tested, and the 2-AG accumulation, % of vehicle control at 1 µM was 896%.
O=C(c1ccc2c(c1)CCCN2C(=O)c1ccc(C(F)(F)F)cc1)N1CC(N2CCN(C(=O)c3nccs3)CC2)C1 [Cpd 365, 6-({3-[4-(1,3-Thiazol-2-ylcarbonyl)piperazin-1-yl]azetidin-1-yl}carbonyl)-1-(4-trifluoromethylbenzoyl)-1,2,3,4-tetrahydroquinoline] showed a 2-AG accumulation, % of vehicle control at 1 µM of 971%.
With O=C(c1ccccc1)N1CCN(C2CN(C(=O)c3ccc(-c4ccc(C(F)(F)F)s4)cc3)C2)CC1 [Cpd 581, 1-(Phenylcarbonyl)-4-[1-({4-[5-(trifluoromethyl)thiophen-2-yl]phenyl}carbonyl)azetidin-3-yl]piperazine] the 2-AG accumulation, % of vehicle control at 1 µM was 140%.
For O=C(c1ccccc1)N1CCN(C2CN(C(=O)c3sc4cc(C(F)(F)F)ccc4c3Cl)C2)CC1 [Cpd 336], the 2-AG accumulation, % of vehicle control at 1 µM was 223%.
With O=C(c1cscn1)N1CCN(C2CN(C(=O)c3cc4c(C(F)(F)F)cccc4s3)C2)CC1 [Cpd 334, 1-(1,3-Thiazol-4-ylcarbonyl)-4-(1-{[4-(trifluoromethyl)-1-benzothiophen-2-yl]carbonyl}azetidin-3-yl)piperazine] the 2-AG accumulation, % of vehicle control at 1 µM was 259%.
O=C(c1ccc(SCc2cccc(C(F)(F)F)c2)cc1)N1CC(N2CCN(C(=O)c3nccs3)CC2)C1 [Cpd 973] gave a 2-AG accumulation, % of vehicle control at 1 µM of 806%.
In the case of O=C(c1ccccc1)N1CCN(C2CN(C(=O)c3ccc(-c4cccc(C(F)(F)F)c4)cc3)C2)CC1 [Cpd 186, 1-(Phenylcarbonyl)-4-(1-{[3′-(trifluoromethyl)biphenyl-4-yl]carbonyl}azetidin-3-yl)piperazine], the 2-AG accumulation, % of vehicle control at 1 µM is reported as 260%.
O=C(c1ccccc1)N1CCN(C2CN(C(=O)c3ccc(S(=O)(=O)c4cccc(Cl)c4)cc3)C2)CC1 [Cpd 433, 1-[1-({4-[(3-Chlorophenyl)sulfonyl]phenyl}carbonyl)azetidin-3-yl]-4-(phenylcarbonyl)piperazine] gave a 2-AG accumulation, % of vehicle control at 1 µM of 159%.

Same assay, conditions: rat brain homogenate; compound 10 μM; 2-AG accumulation as percent of vehicle; read-out: Rat Brain 2AG % VehCntrl (%) @ 10 μM
In the case of CN(C)S(=O)(=O)c1ccc(-c2ccc(C(=O)N3CC(N4CCN(C(=O)c5nccs5)CC4)C3)cc2)cc1 [Cpd 213, N,N-Dimethyl-4′-({3-[4-(1,3-thiazol-2-ylcarbonyl)piperazin-1-yl]azetidin-1-yl}carbonyl)biphenyl-4-sulfonamide], the 2-AG accumulation, % of vehicle control at 10 µM is reported as 104%.
O=C(c1ccccc1)N1CCN(C2CN(C(=O)c3ccc(Cc4ccccc4)s3)C2)CC1 [Cpd 321, 1-{1-[(5-Benzylthiophen-2-yl)carbonyl]azetidin-3-yl}-4-(phenylcarbonyl)piperazine] gave a 2-AG accumulation, % of vehicle control at 10 µM of 230%.
With O=C(c1ccccc1)N1CCN(C2CN(C(=O)c3ccc4c(c3)CCN(C(=O)C3CCCCC3)C4)C2)CC1 [Cpd 350, 2-(Cyclohexylcarbonyl)-6-({3-[4-(phenylcarbonyl)piperazin-1-yl]azetidin-1-yl}carbonyl)-1,2,3,4-tetrahydroisoquinoline] the 2-AG accumulation, % of vehicle control at 10 µM was 498%.
With COc1cccc(-c2ccc(C(=O)N3CC(N4CCN(C(=O)c5nccs5)CC4)C3)cc2)c1 [Cpd 180, 1-{1-[(3′-Methoxybiphenyl-4-yl)carbonyl]azetidin-3-yl}-4-(1,3-thiazol-2-ylcarbonyl)piperazine] the 2-AG accumulation, % of vehicle control at 10 µM was 703%.
O=C(c1ccc2c(Br)cccc2c1)N1CC(N2CCN(C(=O)c3nccs3)CC2)C1 [Cpd 313, 1-{1-[(5-Bromonaphthalen-2-yl)carbonyl]azetidin-3-yl}-4-(1,3-thiazol-2-ylcarbonyl)piperazine] was tested, and the 2-AG accumulation, % of vehicle control at 10 µM was 814%.
Work on O=C(c1cccc(-c2cccs2)c1)N1CC(N2CCN(C(=O)c3nccs3)CC2)C1 [Cpd 137, 1-(1,3-Thiazol-2-ylcarbonyl)-4-{1-[(3-thiophen-2-ylphenyl)carbonyl]azetidin-3-yl}piperazine] yielded a 2-AG accumulation, % of vehicle control at 10 µM of 441%.
Work on COC(=O)C=Cc1ccc(-c2ccc(C(=O)N3CC(N4CCN(C(=O)c5nccs5)CC4)C3)cc2)cc1 [Cpd 224, Methyl 3-[4′-({3-[4-(1,3-thiazol-2-ylcarbonyl)piperazin-1-yl]azetidin-1-yl}carbonyl)biphenyl-4-yl]prop-2-enoate] yielded a 2-AG accumulation, % of vehicle control at 10 µM of 906%.
With O=C(c1ccccc1)N1CCN(C2CN(C(=O)c3cc4ccc(-c5ccccc5)cc4s3)C2)CC1 [Cpd 342, 1-{1-[(6-Phenyl-1-benzothiophen-2-yl)carbonyl]azetidin-3-yl}-4-(phenylcarbonyl)piperazine] the 2-AG accumulation, % of vehicle control at 10 µM was 288%.
Nc1cccc(-c2ccc(C(=O)N3CC(N4CCN(C(=O)c5nccs5)CC4)C3)cc2)c1 [Cpd 230, 4′-({3-[4-(1,3-Thiazol-2-ylcarbonyl)piperazin-1-yl]azetidin-1-yl}carbonyl)biphenyl-3-amine] showed a 2-AG accumulation, % of vehicle control at 10 µM of 567%.
With Cc1ccc(F)cc1-c1ccc(C(=O)N2CC(N3CCN(C(=O)c4nccs4)CC3)C2)cc1 [Cpd 177, 1-{1-[(5′-Fluoro-2′-methylbiphenyl-4-yl)carbonyl]azetidin-3-yl}-4-(1,3-thiazol-2-ylcarbonyl)piperazine] the 2-AG accumulation, % of vehicle control at 10 µM was 768%.
In the case of O=C(c1ccccc1)N1CCN(C2CN(C(=O)c3ccc(-c4ccc(C(F)(F)F)cc4)cc3)C2)CC1 [Cpd 75, 1-(Phenylcarbonyl)-4-(1-{[4′-(trifluoromethyl)biphenyl-4-yl]carbonyl}azetidin-3-yl)piperazine], the 2-AG accumulation, % of vehicle control at 10 µM is reported as 193%.
O=C(c1ccc(-c2cccs2)cc1)N1CC(N2CCN(C(=O)c3nccs3)CC2)C1 [Cpd 138, 1-(1,3-Thiazol-2-ylcarbonyl)-4-{1-[(4-thiophen-2-ylphenyl)carbonyl]azetidin-3-yl}piperazine] showed a 2-AG accumulation, % of vehicle control at 10 µM of 661%.
O=C(CCc1c(Cl)cccc1Cl)N1CC(N2CCN(C(=O)c3nccs3)CC2)C1 [Cpd 274, 1-{1-[3-(2,6-Dichlorophenyl)propanoyl]azetidin-3-yl}-4-(1,3-thiazol-2-ylcarbonyl)piperazine] was tested, and the 2-AG accumulation, % of vehicle control at 10 µM was 876%.
Cc1nc(-c2cccs2)sc1C(=O)N1CC(N2CCN(C(=O)c3nccs3)CC2)C1 [Cpd 134, 1-{1-[(4-Methyl-2-thiophen-2-yl-1,3-thiazol-5-yl)carbonyl]azetidin-3-yl}-4-(1,3-thiazol-2-ylcarbonyl)piperazine] showed a 2-AG accumulation, % of vehicle control at 10 µM of 582%.
With O=C(CCc1ccccc1Cl)N1CC(N2CCN(C(=O)c3nccs3)CC2)C1 [Cpd 273, 1-{1-[3-(2-Chlorophenyl)propanoyl]azetidin-3-yl}-4-(1,3-thiazol-2-ylcarbonyl)piperazine] the 2-AG accumulation, % of vehicle control at 10 µM was 623%.
With Cc1c(C(=O)N2CC(N3CCN(C(=O)c4ccccc4)CC3)C2)sc2ccc(Cl)cc12 [Cpd 120, 1-{1-[(5-Chloro-3-methyl-1-benzothiophen-2-yl)carbonyl]azetidin-3-yl}-4-(phenylcarbonyl)piperazine] the 2-AG accumulation, % of vehicle control at 10 µM was 483%.
O=C(CCc1ccc(Cl)c(Cl)c1)N1CC(N2CCN(C(=O)c3nccs3)CC2)C1 [Cpd 281, 1-{1-[3-(3,4-Dichlorophenyl)propanoyl]azetidin-3-yl}-4-(1,3-thiazol-2-ylcarbonyl)piperazine] was tested, and the 2-AG accumulation, % of vehicle control at 10 µM was 201%.
CC(C)(C)OC(=O)N1CCc2cc(C(=O)N3CC(N4CCN(C(=O)c5ccccc5)CC4)C3)ccc2C1 [Cpd 319, tert-Butyl 6-({3-[4-(phenylcarbonyl)piperazin-1-yl]azetidin-1-yl}carbonyl)-3,4-dihydroisoquinoline-2(1H)-carboxylate] gave a 2-AG accumulation, % of vehicle control at 10 µM of 396%.
COc1ccc(-c2ccc(C(=O)N3CC(N4CCN(C(=O)c5nccs5)CC4)C3)cc2)cc1C=O [Cpd 216, 4-Methoxy-4′-({3-[4-(1,3-thiazol-2-ylcarbonyl)piperazin-1-yl]azetidin-1-yl}carbonyl)biphenyl-3-carbaldehyde] showed a 2-AG accumulation, % of vehicle control at 10 µM of 625%.
Compound O=C(c1ccccc1)N1CCN(C2CN(C(=O)c3ccc4c(ccn4-c4ccccc4)c3)C2)CC1 [Cpd 128, 1-Phenyl-5-({3-[4-(phenylcarbonyl)piperazin-1-yl]azetidin-1-yl}carbonyl)-1H-indole] has a 2-AG accumulation, % of vehicle control at 10 µM of 688%.
O=C(c1ccccc1)N1CCN(C2CN(C(=O)c3ccc(-c4cccc(C(F)(F)F)c4)cc3)C2)CC1 [Cpd 186, 1-(Phenylcarbonyl)-4-(1-{[3′-(trifluoromethyl)biphenyl-4-yl]carbonyl}azetidin-3-yl)piperazine] showed a 2-AG accumulation, % of vehicle control at 10 µM of 521%.
With O=C(c1ccc(-c2ccc(F)cc2F)cc1)N1CC(N2CCN(C(=O)c3nccs3)CC2)C1 [Cpd 179, 1-{1-[(2′,4′-Difluorobiphenyl-4-yl)carbonyl]azetidin-3-yl}-4-(1,3-thiazol-2-ylcarbonyl)piperazine] the 2-AG accumulation, % of vehicle control at 10 µM was 910%.
For Cc1nc(-c2ccc(C(F)(F)F)cc2)sc1C(=O)N1CC(N2CCN(C(=O)c3nccs3)CC2)C1 [Cpd 136, 1-[1-({4-Methyl-2-[4-(trifluoromethyl)phenyl]-1,3-thiazol-5-yl}carbonyl)azetidin-3-yl]-4-(1,3-thiazol-2-ylcarbonyl)piperazine], the 2-AG accumulation, % of vehicle control at 10 µM was 612%.
In the case of O=C(c1ccccc1)N1CCN(C2CN(C(=O)c3ccc(-c4cccc(F)c4)cc3)C2)CC1 [Cpd 195, 1-{1-[(3′-Fluorobiphenyl-4-yl)carbonyl]azetidin-3-yl}-4-(phenylcarbonyl)piperazine], the 2-AG accumulation, % of vehicle control at 10 µM is reported as 365%.
